Source: patent US10752584B2 (EMORY UNIVERSITY, priority 2016, dated 2020)

What was measured:
Type in all cases: cell-based
[1] = Cellular toxicity assay in human PBM cells; details: human, human PBM cells, read-out: Cytotoxicity
Method in brief: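 Compound toxicity was tested in cultured cells, with cycloheximide as positive cytotoxic control and solvent-exposed untreated cells as negative control. Cytotoxicity IC50 came from the concentration-response curve by the median effective method.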

[2] = Cellular toxicity assay in CEM cells; details: human, CEM lymphoblastoid cells, read-out: Cytotoxicity
Protocol: The toxicity of the compounds was assessed in Vero, human PBM, CEM (human lymphoblastoid), MT-2, and HepG2 cells, as described previously (see Schinazi R. F., Sommadossi J.-P., Saalmann V., Cannon D. L., Xie M.-Y., Hart G. C., Smith G. A. & Hahn E. F. Antimicrob. Agents Chemother. 1990, 34, 1061-67). Cycloheximide was included as positive cytotoxic control, and untreated cells exposed to solvent were included as negative controls. The cytotoxicity IC50 was obtained from the concentration-response curve using the median effective method described previously (see Chou T.-C. & Talalay P. Adv. Enzyme Regul. 1984, 22, 27-55; Belen'kii M. S. & Schinazi R. F. Antiviral Res. 1994, 25, 1-11).

[3] = system: mitochondrial DNA (COXII gene) in HepG2 cells; assay: Mitochondrial toxicity assay in HepG2 cells: mitochondrial DNA
From the text: (§1) A real-time PCR assay to accurately quantify mitochondrial DNA content has been developed (see Stuyver L J, Lostia S, Adams M, Mathew J S, Pai B S, Grier J, Tharnish P M, Choi Y, Chong Y, Choo H, Chu C K, Otto M J, Schinazi R F. Antiviral activities and cellular toxicities of modified 2′,3′-dideoxy-2′,3′-didehydrocytidine analogs. Antimicrob. Agents Chemother. 2002; 46: 3854-60). This assay was used in all studies described in this application that determine the effect of compounds on mitochondrial DNA content. In this assay, low-passage-number HepG2 cells were seeded at 5,000 cells/well in collagen-coated 96-well plates. Test compounds were added to the medium to obtain final concentrations of 0 μM, 0.1 μM, 10 μM and 100 μM. On culture day 7, cellular nucleic acids were prepared by using commercially available columns (RNeasy 96 kit; Qiagen). […] The mitochondrial cytochrome c oxidase subunit II (COXII) gene and the β-actin or rRNA gene were amplified from 5 μl of the eluted nucleic acids using a multiplex Q-PCR protocol with suitable primers and probes for both target and reference amplifications. For COXII the following sense, probe and antisense primers were used, respectively: 5′-TGCCCGCCATCATCCTA-3′, 5′-tetrachloro-6-carboxyfluorescein-[…]-TAMRA-3′ and 5′-[…]-3′. For exon 3 of the β-actin gene (GenBank accession number E01094) the sense, probe, and antisense primers are 5′-GCGCGGCTACAGCTTCA-3′, 5′-6-[…]-3′ and 5′-[…]-3′, respectively. The primers and probes for the rRNA gene are commercially available from Applied Biosystems. Since equal amplification efficiencies are obtained for all genes, the comparative CT method was used to investigate potential inhibition of mitochondrial DNA synthesis. The comparative CT method uses arithmetic formulas in which the amount of target (COXII gene) is normalized to the amount of an endogenous reference (the β-actin or rRNA gene) and is relative to a calibrator (a control with no drug at day 7). The arithmetic formula for this approach is given by 2−ΔΔCT, where ΔΔCT is (CT for average target test sample CT for target control)−(CT for average reference test−CT for reference control) (see Johnson M R, K Wang, J B Smith, M J Heslin, R B Diasio. Quantitation of dihydropyrimidine dehydrogenase expression by real-time reverse transcription polymerase chain reaction. Anal. Biochem. 2000; 278:175-184). A decrease in mitochondrial DNA content in cells grown in the presence of drug indicated mitochondrial toxicity.
(§2) The effect of compounds 7 and 9 on the levels of mitochondrial and nuclear DNA, and lactic acid production was evaluated in HepG2 cells (14-day assay), and the data is tabulated below in Table 2: […]

[4] = system: nuclear DNA in HepG2 cells; assay: Mitochondrial toxicity assay in HepG2 cells: nuclear DNA; details: Homo sapiens
From the text: as §1, §2

wild type HBV = assay: Anti-HBV assay in AD-38 cell line; details: Hepatitis B virus, AD-38 cells, HBV in culture supernatant
HBV e antigen (HBeAg) = assay: HBeAg ELISA in HepAD38 cells (cccDNA-dependent marker); details: Hepatitis B virus, HePAD38, 336 h
Protocol: Production of secreted HBeAg is predominantly cccDNA-dependent in HepAD38 cells and therefore can serve as a surrogate marker for cccDNA (Ladner, S. K., Otto, M. J., Barker, C. S., Zaifert, K., Wang, G. H., Guo, J. T., Seeger, C., King, R. W. Antimicrob Agents Chemother 1997, 41, 1715-1720; Zhou T, Guo H, Guo J T, Cuconati A, Mehta A, Block T M. Antiviral Res. 2006; 72 (2): 116-24.). The effect on the levels of cccDNA formation was assessed using a cell-based assay that measures HBV e antigen (HBeAg) as a cccDNA-dependent marker in the HepAD38 system. HepAD38 cells were seeded at 50,000 cells/well in collagen-coated 96-well plates with DMEM/F12 medium (Life Technologies) supplemented with 10% heat-inactivated fetal bovine serum. Cells were treated with 0.3 μg/ml tetracycline as needed. Test compounds and controls were added to cells to a final concentration of 10 μM or in a dose response manner ranging from 0.001 to 10 μM. Medium and test compounds were replenished every 5 days in culture. Supernatants were harvested at day-14, clarified by centrifugation at 5000 rpm for 5 min, and stored at −70° C. until use. ELISA—Culture medium was diluted 1:15 in DMEM/F12 and the levels of HBeAg secreted in the culture medium were measured by using HBeAg ELISA kit (BioChain Institute Inc. Hayward, Calif.) according to the manufacturer's protocol. The concentration of compound that reduced levels of secreted HBeAg by 50% (EC50) was determined by linear regression.

For `C#CCNC(=O)C(=O)c1c(C)c(C(=O)Nc2ccc(F)c(F)c2)n(C)c1C` [Compound 7a, 4-[(Propargylamino)(oxo)acetyl]-N-(3,4-difluorophenyl)-1,3,5-trimethyl-1H-pyrrole-2-carboxamide], the CC50 [1] was > 100000 nM, the CC50 [2] was > 100000 nM and the inhibition at 10 µM ([3]; Homo sapiens, HepG2, 336 h, read-out: % inhibition MtDNA) was < 1%. For the same compound, the IC50 ([3]; Homo sapiens, HepG2, 336 h, read-out: IC50 MtDNA) was > 50000 nM, the “MtDNA (% of control)” value ([3]; human, 14 day, 10 μM) was 110 (100-121) % of control and the IC50 ([4]; 336 h, HepG2 cells, 14-day assay) was > 50000 nM. For the same compound, the inhibition at 10 µM ([4]; 336 h, HepG2 cells, 14-day assay, 10 μM, read-out: % inhibition nDNA) was 5.4%, the inhibition at 25 µM ([4]; 336 h, HepG2 cells, 14-day assay, 25 μM, read-out: % inhibition nDNA) was < 1% and the inhibition at 50 µM ([4]; HepG2, 336 h, read-out: % inhibition nDNA) was 13.1%. It also gave an EC50 (wild type HBV; read-out: Anti-HBV activity EC50) of 1 to 9 nM, an EC90 (wild type HBV; read-out: Anti-HBV activity EC90) of 10 to 90 nM and an EC50 (HBV e antigen (HBeAg); read-out: Anti-HBeAg activity EC50) of 8 nM. The EC90 (HBV e antigen (HBeAg); read-out: Anti-HBeAg activity EC90) was 580 nM.
